Test results reported in US5871779A, “Treatment of arthropathies with vanadate compounds or analogues thereof” (Mount Sinai Hospital Corporation, priority 1996, dated 1999).
Where “and” joins values, the source holds several entries; their conditions need not be identical. Equal values may be shown once.

Assays:
carcinogenesis = details: G. Shklar et al.; cited from earlier work
[1] = test system: proliferating chondrocytes; experiment: viability / proliferation of proliferating chondrocytes (low cell density); assay type: cell-based; details: summary statement
Method: In order to compare the effect of orthovanadate on non-proliferating and proliferating chondrocytes, chondrocytes were plated at both high cell density (2×10^6 to 4×10^6 cells/per well on a six well plate) (nonproliferating) and at a lower cell density (5×10^5 to 1×10^6 cells/per well on a six well plate) (proliferating) and then maintained for 48 hours. The cells were then incubated in media (HAMS F12) containing 0-50 μM Orthovanadate for an additional 48 hours. The cells were harvested and the number of viable cells determined.

collagenase = collagenase production by chondrocytes (ELISA); assay type: cell-based, bovine; details: summary statement
Method: The effect of orthovanadate and N-acetylcysteine on fos, jun and collagenase expression were examined. Bovine articular chondrocytes were isolated and plated as previously described (Kandel R. A. et al. Biochim. Biophys. Acta. 1053, 130-134, 1990). In order to determine the effect of orthovanadate on IL 1 and PMA (phorbol ester) induced responses, chondrocytes were incubated with orthovanadate (100 μM) for 2 hours before stimulation with IL 1 (10 ng/ml) or PMA ([…]). Collagenase production was determined by incubating chondrocytes for 24 hours with IL 1 or PMA and the cell conditioned medium was assayed for collagenase activity using an ELISA procedure as described previously (Kandel et al. supra). PLA2 activity was measured by incorporating ^3 H-arachidonic acid (^3 H-AA) into the cells and then incubating the cells with medium containing 1 mg/ml BSA, either alone or in the presence of IL 1 or PMA, for 10 min. as previously described (Conquer, J. A. […], Biochim. Biophys. Acta. 1134, 1-6). The amount of ^3 H-AA liberated into the supernatant was determined. To measure PGE2 production, chondrocytes were incubated for 6 hours in Ham's F12 medium, either alone or with IL 1 or PMA. The supernatant was analyzed by RIA using an antibody specific for PGE2 (Dr. S. A. Jones, Mount Sinai Hospital, Toronto, Canada). In order to examine the expression of c-fos and c-jun, chondrocytes were incubated for 1 hour in the presence of IL-1, PMA or AA (3 μM). Chondrocytes were washed in PBS and the total RNA extracted as previously described (Cruz. et al, 1991, Biochem. J. 277, 327-330). RNA samples were run on formaldehyde agarose gels and transferred to nylon membrane for northern analysis using cDNA probes for c-fos and c-jun.

MDAY-2D tumor = experiment: ammonium bisvanadate and N-acetylcysteine on tumor growth (Example 22); assay type: in vivo, mice; parameters: Tumour weight: unit not given here; details: for Tumour weight: individual mice
Method: Forty mice were subcutaneously injected with MDAY-2D tumor cells (8×10^5 /100 μl) on day 1. On day 6, the mice were randomly divided into six groups and injected with the following drugs twice a day: Group 1: 100 μl of PBS; Group 2: 100 μl of 2% NAC(ip) and 0.1 mg ammonium bisvanadate in 100 μl PBS; Group 3: 100 μl of 2% NAC(ip) and 0.25 mg ammonium bisvanadate in 100 μl PBS; Group 4;100 μl of 2% NAC(ip) and 0.5 mg ammonium bisvanadate in 100 μl PBS; Group 5: 100 μl of 2% NAC (ip) and 0.75 mg ammonium bisvanadate in 100 μl PBS and; Group 6: 100 μl of 2% NAC (ip) and 1.0 mg ammonium bisvanadate.
On injection day 11 the mice were sacrificed and the tumors dissected. […] The effective concentrations of the vanadate complexes are from 0.25mg/100 μl and 0.5 mg/100 μl.

MDAY-D2 cells = experiment: viability of MDAY-D2 cells; assay type: cell-based, mouse; details: 0-50 μM, 48 hours, three forms compared
Method: Fos and jun activity are also required for cellular proliferation in many tumor cell lines. Accordingly, the effect of orthovanadate on adherent cells and cell suspensions were examined. MDAY-D2 (a mouse lymphoid cell line grown in suspension) and HTB14 cells (an adherent human primary astrocytoma cell line) were incubated in media containing 0-50 μM orthovanadate for 48 hours. The cells were harvested and the number of viable cells determined.
Three different forms of vanadyl compounds were examined for their effect on viability of cancer cell lines. MDAY-D2 cells were incubated in media containing 0-50 μM orthovanadate, vanadyl sulphate, or vanadyl hydroperoxide for 48 hours. The cells were harvested and the number of viable cells determined. […] Although there were slight differences in sensitivity, the overall cell death was similar.

MDAY-D2 tumor = MDAY-D2 tumor growth in vivo, orthovanadate, vanadyl sulphate, vanadyl hydroperoxide (Example 6B); parameters: species or system mice
Text: In order to examine the ability of vanadyl compounds to reduce tumor formation, growth and metastases, a specific animal model which allows investigation of all of these processes in the same animal was chosen. This model involves the injection of a metastatic haematopoietic cell line, MDAY-D2, into mice subcutaneously. These cells form a tumor at the site of injection and its size can be easily determined. In addition, these cells metastasize to the liver and metastases can be detected histologically after day 17 to 19. This model provides a very sensitive and reproducible approach to investigate the effect of vanadyl compounds on tumor growth and metastases.
In a separate experiment using the same animal model, the effect of orthovanadate, vanadyl sulphate and vanadyl hydroperoxide administration on tumor growth in vivo was examined. On Day 1, 20 mice were injected with 2×10^5 MDAY-D2 cell subcutaneously. The mice were divided into four groups of five mice. At day 5, the animals were injected subcutaneously with 50 μl of water alone or containing 10 mg/ml of orthovanadate, 10 mg/ml of vanadyl sulphate, or 10 mg/ml of vanadyl hydroperoxide. This treatment was continued daily for 16 days. At day 21, the mice were sacrificed and the tumors dissected and weighed.

Molecule: N[C@@H](CCC(=O)N[C@@H](CS)C(=O)NCC(=O)O)C(=O)O [glutathione]
- anticancer activity (carcinogenesis): anticancer activity

Molecule: CC1=C(/C=C/C(C)=C/C=C/C(C)=C/C=C/C=C(C)/C=C/C=C(C)/C=C/C2=C(C)CCCC2(C)C)C(C)(C)CCC1 [β-carotene]
- anticancer activity (carcinogenesis): anticancer activity

Molecule: ammonium bis vanadate [ABOV]
- proliferation of cells, such as chondrocytes [1]: inhibit
- production of metalloproteases, such as collagenase (collagenase): inhibit
- Tumour weight (MDAY-2D tumor; 0.1 mg ABOV twice a day + 2% NAC ip): 0.62 and 0.19 and 0.74 and 0.53 and 0.32 and 0.50
- Tumour weight (MDAY-2D tumor; 0.25 mg ABOV twice a day + 2% NAC ip): 0.25 and 0.33 and 0.54 and 0.20 and 0.0 and 0.18
- Tumour weight (MDAY-2D tumor; 0.5 mg ABOV twice a day + 2% NAC ip): 0.21 and 0.50 and 0.07 and 0.34 and 0.0
- death of animals (MDAY-2D tumor; 0.75 mg ABOV twice a day + 2% NAC ip): died
- death of animals (MDAY-2D tumor; 1.0 mg ABOV twice a day + 2% NAC ip): died
- inhibition of tumor growth (MDAY-2D tumor; with NAC): inhibited the tumor growth

Molecule: n-tocopherol
- anticancer activity (carcinogenesis): anticancer activity

Molecule: vanadyl hydroperoxide
- killing of MDAY-D2 cells (MDAY-D2 cells): equally effective
- animal deaths (MDAY-D2 tumor; groups of five, 10 mg/ml, 50 μl daily s.c.): all five died
- efficacy in reducing tumor growth (MDAY-D2 tumor; mouse, in vivo): too toxic to evaluate its efficacy

Molecule: vitamin E
- anticancer activity (carcinogenesis): anticancer activity
